Patent publication US10758541B2, “Formulations of milciclib and therapeutic combinations of the same for use in the treatment of cancer” (Tiziana Life Sciences PLC, priority 2017, dated 2020)

Tests used:
[1] = phase I, cited from earlier work
[2] = test system: MHCC97H cells; test: IC50 values by cell proliferation assay (WST-1); assay type: cell-based, human; settings: Homo sapiens, MHCC97H, 72 h, individual inhibitor, 72 hours, WST-1; read-out: MHCC97H IC50
Protocol: (§1) MHCC97H and MHCC97L (highly metastatic hepatocellular carcinoma cell line, derived from humans)
Cells (MHCC97H, MHCC97L, and HepG2.2.15) were cultured for 24 hours in 2% FBS and then were trypsinized, resuspended in 2% FBS and seeded in a rat collagen coated 96-well plate at a density of 10,000 cells/100 μl/well, a day before the experiment and cultured at 37° C. in 5% CO2. The cells were treated the next day with milciclib, sorafenib, regorafenib, sunitinib, and lenvatinib, individually or in combination in DMEM/F12+2% FBS+for 72 hours prior to the addition of WST-1 reagent. About 100 μL media was added to control well. […] To determine cell proliferation by the colorimetric test, 10 μL of WST-1 reagent (Sigma Aldrich, St Louis, Mo.) was added in 100 μL cell culture media and incubated for 2 hours in 5% CO2 at 37° C. At the end of incubation period, the plate was placed on a plate shaker for 1 minute and was monitored using a spectrophotometer at an optical density of 450 nm with a reference wavelength of 600 nm using Tecan F200 and iControl software. IC50 values were determined using GraphPad Prism (GraphPad Software, La Jolla, Calif.). Each experiment was performed in duplicate and repeated 2 times.

[3] = test system: miR-221 and miR-222; test: miRNA isolation and expression analysis of tumor tissues; assay type: in vivo; settings: tumor tissues from orally treated mice, vs vehicle
Protocol: miRNA from athymic nude mice following treatment with vehicle, milciclib, sorafenib, or milciclib+sorafenib was isolated from Total RNA using the TaqMan Advanced miRNA cDNA Synthesis Kit (Thermo Fisher Scientific, Rockford, Ill.) according to the manufacturer's instructions. miRNA-221 and miR-222 quantifications were performed in duplicates using TaqMan Advanced miRNA Assay (Thermo Fisher Scientific, Rockford, Ill.) with a sample dilution of 1:10. The PCR mixture was incubated at 95° C. for 20 seconds, followed by 40 cycles of 95° C. for 3 seconds and 60° C. for 30 seconds. Results were normalized to hsa-miR-192-5p as reference miRNA and the relative gene expression calculated as 2−ΔCT was expressed as fold increase over control samples.
Tumor tissues from mice treated with vehicle, sorafenib, milciclib, milciclib+sorafenib and normal liver tissues from naïve untreated mice were collected and levels of miR-221 and miR-222 were determined. The levels of both of miR-221 and miR-222 were elevated in tumors from vehicle treated mice.

[4] = test system: MHCC97L cells; test: IC50 values by cell proliferation assay (WST-1); assay type: cell-based; settings: Homo sapiens, individual inhibitor, 72 hours
From the text: (§2) See Shailubhai, K et al. “Atiprimod is an inhibitor of cancer cell proliferation and angiogenesis.” J Exp Ther Oncol. 2004; 4: 267-279; and Choudhari et al. “Deactivation of Akt and STAT3 signaling promotes apoptosis, inhibits proliferation, and enhances the sensitivity of hepatocellular carcinoma cells to an anticancer agent, atiprimod” Molecular Cancer Therapeutics. 2007; 6: 112-121. References are incorporated herein in their entireties.
as §1
(§3) Cells (MHCC97H, MHCC97L, and HepG2.2.15) were cultured for 24 hours in 2% FBS and then were trypsinized, resuspended in 2% FBS and seeded in a rat collagen coated 96-well plate at a density of 10,000 cells/100 μl/well, a day before the experiment and cultured at 37° C. in 5% CO2. The cells were treated the next day with milciclib, sorafenib, regorafenib, sunitinib, and lenvatinib, individually or in combination in DMEM/F12+2% FBS+for 72 hours prior to the addition of WST-1 reagent. About 100 μL media was added to control well. After cells had been cultured for 72 hours with different drug concentrations, cells were washed 3 times with sterile 1× Phosphate buffered saline (PBS). To determine cell proliferation by the colorimetric test, 10 μL of WST-1 reagent (Sigma Aldrich, St Louis, Mo.) was added in 100 μL cell culture media and incubated for 2 hours in 5% CO2 at 37° C. At the end of incubation period, the plate was placed on a plate shaker for 1 minute and was monitored using a spectrophotometer at an optical density of 450 nm with a reference wavelength of 600 nm using Tecan F200 and iControl software. IC50 values were determined using GraphPad Prism (GraphPad Software, La Jolla, Calif.). Each experiment was performed in duplicate and repeated 2 times.

[5] = test system: HepG2.2.15 cells; test: IC50 values by cell proliferation assay (WST-1); assay type: cell-based; settings: Homo sapiens, HepG2.2.15; individual inhibitor, 72 hours, WST-1; read-out: HepG2.2.15 IC50
From the text: as §2
HepG2.2.15 cells are derived from the human hepatoblastoma cell line HepG2.
as §3

CNC(=O)c1nn(C)c2c1C(C)(C)Cc1cnc(Nc3ccc(N4CCN(C)CC4)cc3)nc1-2 [MILCICLIB, N,1,4,4-tetramethyl-8-((4-(4-methylpiperazin-1-yl)phenyl)amino)-4,5-dihydro-1H-pyrazolo[4,3-h]quinazoline-3-carboxamide]
tolerability ([1]; oral treatment, patients with advanced solid malignancies): well-tolerated
RP2D ([1]; oral): 150 mg/day
major toxicity profile ([1]; reversible upon treatment suspension): tremors and gastrointestinal toxicity
IC50 [2]: 1300 nM
expression of miR-221 and miR-222 [3]: significantly reduced
IC50 [4]: 1000 nM
IC50 [5]: 1160 nM
